PMC13403234, “Engineering Cathepsin S Selective Chemical Probes and Antibody−Drug Conjugates through Substrate Profiling with Unnatural Amino Acids” (Journal of Medicinal Chemistry, 2026)
*1 amine or outer side, *2 acyl side, *3 side chain or, on linkers, in order; H or OH if unused. Where a SMILES comes first, the peptide text is derived from it. [ ]: non-standard residue; d: D form. The star is where a group is joined. Dolaproine = CO[C@@H]([C@@H]1CCCN1)[C@@H](C)C(=O)O; Dil = CC[C@H](C)[C@H](NC)[C@@H](CC(=O)O)OC; Met(O2) = CS(=O)(=O)CC[C@H](N)C(=O)O; PABC = O=C(OCc1ccc(N[*:1])cc1)[*:2]; X1 = C[C@@H](N*)[C@@H](O)c1ccccc1; tBuAla = CC(C)(C)C[C@H](N)C(=O)O; Cit = NC(=O)NCCC[C@H](N)C(=O)O; NMeV = CN[C@H](C(=O)O)C(C)C; Cbz = O=C(OCc1ccccc1)*

What was measured:
[1] = ADC stability in mouse serum (free MMAE by LC-MS/MS); type: in vitro ADME; conditions: anti-TROP-2 sacituzumab-based ADCs, up to 1 week, 37 °C
Protocol: Selected ADCs were incubated at 0.1 mg/mL in 100 μL of plasma samples for 24, 48, 72, and 168 h at 37 °C. The samples were then frozen at −80 °C and subjected to LC-MS/MS analysis. Stock solutions of MMAE and MMAE-d 8 standards were prepared in DMSO at a concentration of 10 mM and stored at −20 °C until use. Calibration solutions were prepared by diluting the stock solutions with methanol/ethanol (50:50, v/v). Mouse and human serum were purchased from Sigma-Aldrich. The concentration of MMAE in serum samples was determined based on the method described by Mak et al., with minor modifications. Briefly, 10 μL of serum was spiked with 5 μL of 25 nM MMAE-d 8 as an internal standard (IS), followed by the addition of 35 μL of ice-cold ethanol/methanol (50:50, v/v). The mixture was vortexed for 5 min and then incubated at − 20 °C for 30 min to precipitate proteins. The samples were subsequently centrifuged for 30 min at 20,000 × g and 4 °C. The supernatant was collected and subjected to LC-MS analysis. A Waters Acquity Premier UPLC system (Massachusetts, USA), consisting of a binary pump, thermostatic column holder, and refrigerated sample manager, was used for chromatographic separation. Separation was performed on an Acquity UPLC BEH C18 column (2.1 × 50 mm, 1.7 μm) using 0.1% formic acid in water as mobile phase A and 0.1% formic acid in methanol as mobile phase B. The column temperature and sample manager temperature were maintained at 45 and 15 °C, respectively. The injection volume was 1 μL, and the flow rate was 0.3 mL/min. The gradient started at 20% B, increased to 90% B over 3 min, and was held at 90% B for 2 min. Finally, the column was equilibrated back to 20% B for 1 min. The total run time was 6 min. MS analysis was performed using a Waters Xevo TQ-Absolute XR triple quadrupole mass spectrometer (Massachusetts, USA) equipped with an electrospray ionization interface. Samples were analyzed in positive multiple reaction monitoring (MRM) mode. […] MMAE and MMAE-d8 were detected based on their characteristic MRM transitions and retention times. […]

[2] = test system: MDA-MB-231 cells; assay: MTS cell viability assay, MDA-MB-231; type: cell-based, human; conditions: TROP-2-positive MDA-MB-231 cells
Protocol: The BT-474 (ATCC HTB-20, RRID: CVCL_0179), MCF-7 (ATCC HTB-22, RRID: CVCL_0031), and MDA-MB-231 (ATCC HTB-26, RRID: CVCL_0062) breast cancer cell lines were cultured at 37 °C in a humidified incubator with 5% CO2. Cells were maintained in Dulbecco’s Modified Eagle Medium (DMEM; Gibco, Cat. No. 41965−039) supplemented with 10% fetal bovine serum (FBS; Gibco, Cat. No. A5256801), L-glutamine, sodium pyruvate, penicillin […], and streptomycin (0.1 mg/mL). All cell lines were routinely tested for mycoplasma contamination (every 12−16 weeks) using a PCR-based detection kit.
Cell viability was evaluated using the MTS assay (CellTiter 96 AQueous One Solution Cell Proliferation Assay, Promega, Cat. No. G358B) according to the manufacturer’s instructions. BT-474 cells were seeded at a density of 20,000 cells/well, while MCF-7 and MDA-MB-231 cells were seeded at 5,000 cells/well in 96-well plates and allowed to adhere overnight. Peptide prodrugs, free MMAE (used as a control), or ADCs were added in serial dilutions. For peptide prodrugs and MMAE, concentrations ranged from 0.001 to 10 μM; for ADCs, from 0.03 to 3 μM. […] Absorbance was measured at 490 nm. Background absorbance (blank wells) was subtracted from all readings, and cell viability was calculated as a percentage relative to untreated controls. […]

[3] = target: T1, Cathepsin S (Homo sapiens, UniProt P25774); assay: Prodrug cleavage / MMAE release by LC-MS, cathepsin S; type: biochemical; conditions: prodrug 50 μM, pH 5.5, 37 °C, 0-120 min
T1 construct: made in house
Protocol: (§1) Cleavage assays were conducted at 37 °C in 1 mL reaction volumes using acetate buffer composed of 100 mM sodium acetate (pH 5.5), 100 mM NaCl, 1 mM EDTA, and 5 mM DTT. Buffers were prepared at room temperature and equilibrated before use. Prodrugs were initially dissolved in DMSO at a stock concentration of 10 mM, then diluted into the reaction buffer to a final concentration of 50 μM, maintaining a DMSO concentration below 0.5% (v/v). Reactions were initiated by the addition of recombinant cathepsin and carried out in glass LC-MS vials incubated at 37 °C. At specified time points (0, 5, 30, 60, and 120 min), aliquots were taken and directly injected into the LC-MS system without further processing. Quantification of MMAE release was based on absorbance at 220 nm. The area under the MMAE peak was integrated, and the amount of released MMAE was plotted as a function of time. Each time point was measured in triplicate, and results are presented as mean ± standard deviation (SD). A standard curve was prepared using free MMAE at concentrations of 1, 5, 10, 20, and 50 μM to enable accurate quantification of MMAE released from the prodrugs.

[4] = test system: cathepsins B, L, and V; assay: Prodrug cleavage / MMAE release by LC-MS, other cathepsins; type: biochemical, human; conditions: prodrug 50 μM, pH 5.5, 37 °C
Protocol: as §1

[5] = target: T2, Cathepsin B (Homo sapiens, UniProt P07858); assay: Labeling of cathepsin B in MDA-MB-231 live cells with Cy5 probes; type: cell-based; set-up: endogenous in cells; host or cells: MDA-MB-231; conditions: cellular environments; probe labeling
Protocol: (§2) 50,000 of MDA-MB-231 cells were seeded into 12-well plate and allowed to attach overnight. The next day, OG-233 and OG-234 probes (1 μM final concentration) were added to the cells and incubated for various times (from 0,5 h up to 24 h). Control cells were preincubated with cathepsin S inhibitors (JN1, JN4, JN7) at 25 μM for 2 h, and then incubated with OG-233 or OG-234 probes for 24 h. Next, cells were harvested and prepared for SDS-PAGE analysis as described in the above section. Electrophoresis was run for 25 min (4−12% Bis-Tris Plus 10-well gel, 200 V). Next, proteins were transferred onto the membrane (0.2 μm nitrocellulose membrane, 10 V, 60 min) and Ponceau S was used to verify equal loading and transfer. Membranes were then blocked with 5% BSA in TBS-T buffer for 1 h at RT. Membranes were next incubated anticathepsin S antibody (1:1,000, overnight, 4 °C), and the next day with a secondary antibody (IRDye 800CW, donkey anti-Goat) for 30 min at RT, and scanned at 680 and 800 nm using the Sapphire biomolecular imager (Azure Biosystems) to detect the Cy5 probes and cathepsin S. All images were analyzed with Image Studio software.

[6] = target: T1, Cathepsin S; assay: Second-order rate constants of inhibition (kobs/[I]), cathepsin S; type: biochemical; conditions: Figure 4D
Protocol: (§3) All kinetic studies were performed using an fMax fluorescence plate reader (Molecular Devices) in kinetic mode with 96- or 384-well plates. ACC fluorescence was monitored at excitation and emission wavelengths of 355 and 460 nm, respectively. Recombinant human cysteine cathepsins L, V, B, K, and S were expressed and purified as previously described. Prior to use, all cysteine cathepsins were titrated with E64 to normalize enzymatic activity. Assays for cathepsins were conducted in 100 mM sodium acetate buffer containing 10 mM NaCl and 10 mM DTT (pH 5.5). Breast cancer cell lysates (BT-474, MCF-7, MDA-MB-231) were prepared by culturing cells to confluence in the appropriate media, replacing media with PBS, and harvesting the cells using a cell scraper (without trypsin). The cells were pelleted by centrifugation (400 × g, 5 min), resuspended in PBS, and centrifuged again under the same conditions. After removal of the supernatant, the pellet was resuspended in cathepsin assay buffer (excluding DTT) and sonicated. Lysates were then clarified by centrifugation (12,000 × g, 5 min), and the supernatants were collected and stored at −80 °C until use. All enzymatic assays, including HyCoSuL library screening and kinetic analyses of synthetic substrates, inhibitors, probes and prodrugs, were conducted at 37 °C and repeated at least three times. Mean values are reported. Kinetic data were analyzed using GraphPad Prism software (version 10.4.1).
(§4) The second-order rate constants of inhibition (k obs/[I]) were determined for human recombinant cathepsins S, B, L, and V using their respective assay buffers. All measurements were performed under pseudo-first-order kinetic conditions, as previously described. Inhibitors or ABPs were serially diluted in assay buffer and transferred to a 96-well plate. Each well was supplemented with the fluorogenic substrate Cbz-Phe-Arg-AMC at a final concentration of 25 μM and preincubated for 15 min. In parallel, enzymes were preactivated in assay buffer for 15 min at room temperature. Following preincubation, the activated enzymes were added to the wells, and fluorescence was monitored immediately for 30 min. The k obs/[I] values (M^-1S^-1) were calculated from the progress curves and averaged from at least three independent experiments. Final inhibitor (or ABP) concentrations were maintained at a minimum of 5-fold excess relative to enzyme concentrations to ensure pseudo-first-order conditions. Results were analyzed in GraphPad Prism and are reported as mean ± standard deviation.

[7] = target: T3, Cathepsin L (Homo sapiens, UniProt P07711); assay: Second-order rate constants of inhibition (kobs/[I]), cathepsin L; type: biochemical; conditions: Figure 4D; Cy5- and BODIPY-labeled probes
T3 construct: made in house
Protocol: as §3, §4

[8] = target: T2, Cathepsin B; assay: Second-order rate constants of inhibition (kobs/[I]), cathepsin B; type: biochemical; set-up: made in house; conditions: Figure 4D; Cy5- and BODIPY-labeled probes
Protocol: as §3, §4

[9] = target: T4, active cathepsin S in MDA-MB-231 live cells (Homo sapiens, UniProt P25774); assay: Labeling of active cathepsin S in MDA-MB-231 live cells with Cy5 probes; type: cell-based; conditions: probe 1 μM, 0,5 to 24 h
T4 construct: endogenous in cells; host or cells: MDA-MB-231
Protocol: as §2

[10] = target: T5, Cathepsin V (Homo sapiens, UniProt O60911); assay: Second-order rate constants of inhibition (kobs/[I]), cathepsin V; type: biochemical; conditions: Figure 4D; Cy5- and BODIPY-labeled probes
T5 construct: made in house
Protocol: as §3, §4

T1 sequence (P25774 115-331): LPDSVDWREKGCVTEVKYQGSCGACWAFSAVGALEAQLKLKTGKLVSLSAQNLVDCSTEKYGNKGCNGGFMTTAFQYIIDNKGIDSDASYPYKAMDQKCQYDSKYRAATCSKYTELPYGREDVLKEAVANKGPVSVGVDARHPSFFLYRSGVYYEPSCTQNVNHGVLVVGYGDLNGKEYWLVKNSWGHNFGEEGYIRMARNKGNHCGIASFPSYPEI
T4 sequence (P25774 115-331): as above
T5 sequence (O60911 114-334): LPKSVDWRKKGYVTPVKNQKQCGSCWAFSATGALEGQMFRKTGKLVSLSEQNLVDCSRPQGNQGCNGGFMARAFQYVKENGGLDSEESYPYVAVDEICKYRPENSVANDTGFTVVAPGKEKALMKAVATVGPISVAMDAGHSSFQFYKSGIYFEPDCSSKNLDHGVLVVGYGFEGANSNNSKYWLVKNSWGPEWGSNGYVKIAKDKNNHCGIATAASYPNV
T3 sequence (P07711 114-333): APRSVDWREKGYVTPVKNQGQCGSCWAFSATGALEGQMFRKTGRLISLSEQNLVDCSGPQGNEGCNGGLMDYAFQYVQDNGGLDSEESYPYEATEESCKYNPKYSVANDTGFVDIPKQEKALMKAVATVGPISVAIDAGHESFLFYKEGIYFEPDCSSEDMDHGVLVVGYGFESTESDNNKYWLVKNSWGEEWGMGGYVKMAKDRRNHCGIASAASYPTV

Compound | payload release [1] | cytotoxicity of sacituzumab (anti-TROP-2) ADCs [2] | cleavage / free MMAE release by cathepsin S [3] | cleavage / free MMAE release by other cathepsins [4] | further results
313 anti-TROP-2 ADC: sacituzumab (anti-TROP-2) ADC with Phe(F5)-Cit-Lys(2ClZ)-Glu(Me) linker, PABC spacer and MMAE payload | approximately 6% | moderate toxicity |  |  | 
314 anti-TROP-2 ADC: sacituzumab (anti-TROP-2) ADC with Met(O2)-Cit-NptGly-Glu(Me) linker, PABC spacer and MMAE payload | approximately 6% | markedly more potent |  |  | 
CC[C@H](C)[C@@H]([C@@H](CC(=O)N1CCC[C@H]1[C@H](OC)[C@@H](C)C(=O)N[C@H](C)[C@@H](O)c1ccccc1)OC)N(C)C(=O)[C@@H](NC(=O)[C@H](C(C)C)N(C)C(=O)OCc1ccc(NC(=O)[C@H](CCCNC(N)=O)NC(=O)[C@@H](NC(=O)OCc2ccccc2)C(C)C)cc1)C(C)C [compound 300, Cbz-Val-Cit-PABC-MMAE, reference compound] (Cbz-V[Cit][PABC][NMeV]V[Dil][Dolaproine]-X1; N-terminus and C-terminus assumed) |  |  | efficiently cleaved by cathepsins S, B, L, and V | efficiently cleaved by cathepsins S, B, L, and V | 
CC[C@H](C)[C@@H]([C@@H](CC(=O)N1CCC[C@H]1[C@H](OC)[C@@H](C)C(=O)N[C@H](C)[C@@H](O)c1ccccc1)OC)N(C)C(=O)[C@@H](NC(=O)[C@H](C(C)C)N(C)C(=O)OCc1ccc(NC(=O)[C@H](CCC(=O)OC)NC(=O)[C@H](CC(C)(C)C)NC(=O)[C@H](CCCNC(N)=O)NC(=O)[C@H](CCS(C)(=O)=O)NC(C)=O)cc1)C(C)C [compound 314, Ac-Met(O2)-Cit-NptGly-Glu(Me)-PABC-MMAE] (Ac-[Met(O2)][Cit][tBuAla]E(OMe)[PABC][NMeV]V[Dil][Dolaproine]-X1) |  |  | also cleaved by cathepsin S | moderate cross-reactivity toward other cathepsins | 
ADC 300: sacituzumab (anti-TROP-2) ADC with pan-cathepsin Val-Cit linker, PABC spacer and MMAE payload | 1.5% |  |  |  | 
Cy5-PEG(4)-Met(O2)-Cit-NptGly-Glu(Me)-AOMK [OG-234] |  |  |  |  | off-target labeling of cathepsin B in cells [5]: minor off-target labeling of cathepsin B; kobs/[I] Cath S ([6]; Cy5- and BODIPY-labeled probes): 253,000 M^-1s^-1; Selectivity S to B ([6]; calculated from kobs/[I], cathepsin S over cathepsin B): 23; Selectivity S to L ([6]; calculated from kobs/[I], cathepsin S over cathepsin L): 46; Selectivity S to V ([6]; calculated from kobs/[I], cathepsin S over cathepsin V): 32; kobs/[I] Cath L [7]: 5,530 M^-1s^-1; kobs/[I] Cath B [8]: 11,200 M^-1s^-1; detection of active cathepsin S in living cells [9]: able to detect active cathepsin S as soon as upon 3 h incubation; kobs/[I] Cath V [10]: 7,900 M^-1s^-1
